Laboratory results taken from patent US20230321012A1 (priority 2021, published 2023).

Assay: clinical
Conditions: for Cmax / Tmax / AUC(0-t): human
Description: Clinical Trial Outline. […] All solid tumor types are eligible for the trial. […] An expansion cohort was included at the RP2D level to confirm safety and tolerability of the combination. […] In Part 2, patients were treated by giving both agents twice daily (BID dosing schedule).
Plasma samples were analyzed for AMXT 1501 concentration via a LC/MS^2 procedure (MI-0028-DB-AB; Agilux Laboratories, Worcester, Massachusetts), and the resulting concentration versus time data were used to estimate individual PK parameters using noncompartmental analysis (NCA).

[1] = Part 1 Cohort 1, 80 mg QD, Cycle 1 Day 1
[2] = Part 1 Cohort 1, 80 mg QD, Cycle 1 Day 14
[3] = Part 1 Cohort 1, 80 mg QD, Cycle 1 Day 28, +DFMO 500 mg/day
[4] = Part 1 Cohort 2, 160 mg QD, Cycle 1 Day 1
[5] = Part 1 Cohort 2, 160 mg QD, Cycle 1 Day 14
[6] = Part 1 Cohort 2, 160 mg QD, Cycle 1 Day 28, +DFMO 500 mg/day
[7] = Part 1 Cohort 3, 400 mg QD, Cycle 1 Day 14
[8] = Part 1 Cohort 3, 400 mg QD, Cycle 1 Day 28, +DFMO 500 mg/day
[9] = Part 1 Cohort 3, 400 mg QD, Day 1
[10] = Part 1 Cohort 4, 1200 mg QD, Cycle 1 Day 1
[11] = Part 1 Cohort 4, 1200 mg QD, Cycle 1 Day 14
[12] = Part 1 Cohort 5, 1800 mg QD, Cycle 1 Day 1
[13] = Part 1 Cohort 5, 1800 mg QD, Cycle 1 Day 14
[14] = Part 1 Cohort 5, 1800 mg QD, Cycle 1 Day 28, +DFMO 500 mg/day
[15] = Part 1 Cohort 5, 1800 mg QD, Cycle 2 Day 14, n=1

## CCCCCCCCCCCCCCCC(=O)NCCCC[C@@H](N)C(=O)NCCCNCCCCNCCCN [AMXT 1501, D-lys(palmitoyl)-spermine]
Cohort 5 patients vs 2.5 mg/kg SC in 4T1 mice
  Cohort 5 patient AUC versus mouse plasma AUC at efficacious dose: 1.72 times
[1]
  Tlast Mean: 13.2 h
  Tlast Median: 6 h
[2]
  Tlast Mean: 12 h
  Tlast Median: 6 h
[3]
  Tlast Mean: 18 h
  Tlast Median: 24 h
[4]
  Tlast Mean: 15 h
  Tlast Median: 15 h
[5]
  Tlast Mean: 15 h
  Tlast Median: 15 h
[6]
  Tlast Mean: 10.5 h
  Tlast Median: 6 h
[7]
  Tlast Mean: 19.5 h
  Tlast Median: 24 h
[8]
  Tlast Mean: 24 h
  Tlast Median: 24 h
[9]
  Tlast Mean: 25.5 h
  Tlast Median: 24 h
[10]
  Tlast Mean: 40 h
  Tlast Median: 24 h
[11]
  Tlast Mean: 24 h
  Tlast Median: 24 h
[12]
  Tlast Mean: 54 h
  Tlast Median: 60 h
[13]
  Tlast Mean: 24 h
  Tlast Median: 24 h
[14]
  Tlast Mean: 24 h
  Tlast Median: 24 h
[15]
  Tlast Mean: 24 h
  Tlast Median: 24 h
Adult patients, 1,200 mg or 800 mg per day, split BID
  sustained plasma level versus predicted efficacious concentration (100 nM, 57 ng/mL): above this predicted efficacious concentration value
In vivo, 160 mg, Cmax Mean, Part 1 Cohort 2, 160 mg QD, Cycle 1 Day 1
  Cmax: 19.5 ng/mL
In vivo, 1800 mg, Tmax Mean, Part 1 Cohort 5, 1800 mg QD, Cycle 1 Day 1
  Tmax: 10.5 h
plasma, oral, 80 mg, AUC0-6 hr Mean, Part 1 Cohort 1, 80 mg QD, Cycle 1 Day 1
  AUC(0-t): 29.6 ng·h/mL
plasma, oral, 80 mg, AUC0-6 hr Mean, Part 1 Cohort 1, 80 mg QD, Cycle 1 Day 14
  AUC(0-t): 91 ng·h/mL
plasma, oral, 80 mg, AUC0-6 hr Median, Part 1 Cohort 1, 80 mg QD, Cycle 1 Day 1
  AUC(0-t): 29.9 ng·h/mL
plasma, oral, 80 mg, AUC0-6 hr Median, Part 1 Cohort 1, 80 mg QD, Cycle 1 Day 14
  AUC(0-t): 51.3 ng·h/mL
plasma, oral, 80 mg, AUC0-t Mean, Part 1 Cohort 1, 80 mg QD, Cycle 1 Day 1
  AUC(0-t): 92 ng·h/mL
plasma, oral, 80 mg, AUC0-t Mean, Part 1 Cohort 1, 80 mg QD, Cycle 1 Day 14
  AUC(0-t): 262 ng·h/mL
plasma, oral, 80 mg, AUC0-t Median, Part 1 Cohort 1, 80 mg QD, Cycle 1 Day 1
  AUC(0-t): 45.3 ng·h/mL
plasma, oral, 80 mg, AUC0-t Median, Part 1 Cohort 1, 80 mg QD, Cycle 1 Day 14
  AUC(0-t): 51.3 ng·h/mL
plasma, oral, 80 mg, Cmax Mean, Part 1 Cohort 1, 80 mg QD, Cycle 1 Day 1
  Cmax: 11.7 ng/mL
plasma, oral, 80 mg, Cmax Mean, Part 1 Cohort 1, 80 mg QD, Cycle 1 Day 14
  Cmax: 26.2 ng/mL
plasma, oral, 80 mg, Cmax Median, Part 1 Cohort 1, 80 mg QD, Cycle 1 Day 1
  Cmax: 10.6 ng/mL
plasma, oral, 80 mg, Cmax Median, Part 1 Cohort 1, 80 mg QD, Cycle 1 Day 14
  Cmax: 13.8 ng/mL
plasma, oral, 80 mg, Tmax Mean, Part 1 Cohort 1, 80 mg QD, Cycle 1 Day 1
  Tmax: 4.8 h
plasma, oral, 80 mg, Tmax Mean, Part 1 Cohort 1, 80 mg QD, Cycle 1 Day 14
  Tmax: 4.67 h
plasma, oral, 80 mg, Tmax Median, Part 1 Cohort 1, 80 mg QD, Cycle 1 Day 1
  Tmax: 4 h
plasma, oral, 80 mg, Tmax Median, Part 1 Cohort 1, 80 mg QD, Cycle 1 Day 14
  Tmax: 4 h
plasma, oral, 160 mg, AUC0-6 hr Mean, Part 1 Cohort 2, 160 mg QD, Cycle 1 Day 1
  AUC(0-t): 74.8 ng·h/mL
plasma, oral, 160 mg, AUC0-6 hr Mean, Part 1 Cohort 2, 160 mg QD, Cycle 1 Day 14
  AUC(0-t): 43.4 ng·h/mL
plasma, oral, 160 mg, AUC0-6 hr Median, Part 1 Cohort 2, 160 mg QD, Cycle 1 Day 1
  AUC(0-t): 67.1 ng·h/mL
plasma, oral, 160 mg, AUC0-6 hr Median, Part 1 Cohort 2, 160 mg QD, Cycle 1 Day 14
  AUC(0-t): 49.8 ng·h/mL
plasma, oral, 160 mg, AUC0-t Mean, Part 1 Cohort 2, 160 mg QD, Cycle 1 Day 1
  AUC(0-t): 169 ng·h/mL
plasma, oral, 160 mg, AUC0-t Mean, Part 1 Cohort 2, 160 mg QD, Cycle 1 Day 14
  AUC(0-t): 105 ng·h/mL
plasma, oral, 160 mg, AUC0-t Median, Part 1 Cohort 2, 160 mg QD, Cycle 1 Day 1
  AUC(0-t): 130 ng·h/mL
plasma, oral, 160 mg, AUC0-t Median, Part 1 Cohort 2, 160 mg QD, Cycle 1 Day 14
  AUC(0-t): 59.7 ng·h/mL
plasma, oral, 160 mg, Cmax Mean, Part 1 Cohort 2, 160 mg QD, Cycle 1 Day 14
  Cmax: 14.1 ng/mL
plasma, oral, 160 mg, Cmax Median, Part 1 Cohort 2, 160 mg QD, Cycle 1 Day 1
  Cmax: 17.8 ng/mL
plasma, oral, 160 mg, Cmax Median, Part 1 Cohort 2, 160 mg QD, Cycle 1 Day 14
  Cmax: 16.2 ng/mL
plasma, oral, 160 mg, Tmax Mean, Part 1 Cohort 2, 160 mg QD, Cycle 1 Day 1
  Tmax: 4 h
plasma, oral, 160 mg, Tmax Mean, Part 1 Cohort 2, 160 mg QD, Cycle 1 Day 14
  Tmax: 5 h
plasma, oral, 160 mg, Tmax Median, Part 1 Cohort 2, 160 mg QD, Cycle 1 Day 1
  Tmax: 4 h
plasma, oral, 160 mg, Tmax Median, Part 1 Cohort 2, 160 mg QD, Cycle 1 Day 14
  Tmax: 5 h
plasma, oral, 400 mg, AUC0-6 hr Mean, Part 1 Cohort 3, 400 mg QD, Cycle 1 Day 14
  AUC(0-t): 289 ng·h/mL
plasma, oral, 400 mg, AUC0-6 hr Mean, Part 1 Cohort 3, 400 mg QD, Day 1
  AUC(0-t): 183 ng·h/mL
plasma, oral, 400 mg, AUC0-6 hr Median, Part 1 Cohort 3, 400 mg QD, Cycle 1 Day 14
  AUC(0-t): 304 ng·h/mL
plasma, oral, 400 mg, AUC0-6 hr Median, Part 1 Cohort 3, 400 mg QD, Day 1
  AUC(0-t): 207 ng·h/mL
plasma, oral, 400 mg, AUC0-t Mean, Part 1 Cohort 3, 400 mg QD, Cycle 1 Day 14
  AUC(0-t): 957 ng·h/mL
plasma, oral, 400 mg, AUC0-t Mean, Part 1 Cohort 3, 400 mg QD, Day 1
  AUC(0-t): 714 ng·h/mL
plasma, oral, 400 mg, AUC0-t Median, Part 1 Cohort 3, 400 mg QD, Cycle 1 Day 14
  AUC(0-t): 1100 ng·h/mL
plasma, oral, 400 mg, AUC0-t Median, Part 1 Cohort 3, 400 mg QD, Day 1
  AUC(0-t): 906 ng·h/mL
plasma, oral, 400 mg, Cmax Mean, Part 1 Cohort 3, 400 mg QD, Cycle 1 Day 14
  Cmax: 66.4 ng/mL
plasma, oral, 400 mg, Cmax Mean, Part 1 Cohort 3, 400 mg QD, Day 1
  Cmax: 47 ng/mL
plasma, oral, 400 mg, Cmax Median, Part 1 Cohort 3, 400 mg QD, Cycle 1 Day 14
  Cmax: 73.5 ng/mL
plasma, oral, 400 mg, Cmax Median, Part 1 Cohort 3, 400 mg QD, Day 1
  Cmax: 52.5 ng/mL
plasma, oral, 400 mg, Tmax Mean, Part 1 Cohort 3, 400 mg QD, Cycle 1 Day 14
  Tmax: 5 h
plasma, oral, 400 mg, Tmax Mean, Part 1 Cohort 3, 400 mg QD, Day 1
  Tmax: 5 h
plasma, oral, 400 mg, Tmax Median, Part 1 Cohort 3, 400 mg QD, Cycle 1 Day 14
  Tmax: 5 h
plasma, oral, 400 mg, Tmax Median, Part 1 Cohort 3, 400 mg QD, Day 1
  Tmax: 5 h
